From PMC9814250, “Single step syntheses of (1S)-aryl-tetrahydroisoquinolines by norcoclaurine synthases” (Communications Chemistry, 2020)

How the values were obtained:
RnCOMT [1] = biological target: T1, RnCOMT (Rattus norvegicus, UniProt P22734); assay: HPLC, O-methylation to C6-OMe product; details: SAM generated in situ (EcMAT, EcMTAN), Mg2+, pH 7.5, 37 °C, 24 h; not enantioselective
T1 construct: gene Comt; recombinant in E. coli BL21(DE3), used as lysate
T1 sequence (P22734 1-264): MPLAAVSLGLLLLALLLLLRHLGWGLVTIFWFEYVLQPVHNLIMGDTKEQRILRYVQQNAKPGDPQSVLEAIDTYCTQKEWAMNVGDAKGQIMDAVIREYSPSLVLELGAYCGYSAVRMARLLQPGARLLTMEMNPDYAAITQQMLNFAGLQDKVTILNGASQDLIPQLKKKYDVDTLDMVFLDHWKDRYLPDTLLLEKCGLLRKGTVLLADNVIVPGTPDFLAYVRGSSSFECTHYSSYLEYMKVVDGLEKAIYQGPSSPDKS

MxSafC [2] = biological target: T2, MxSafC (Myxococcus xanthus, UniProt Q50859); assay: HPLC, O-methylation to C6-OMe-7a; format: biochemical; details: SAM generated in situ (EcMAT, EcMTAN), Mg2+, pH 7.5, 37 °C, 24 h; selective for (S)
T2 construct: gene safC; recombinant in E. coli BL21(DE3), His-trap purified

RnCOMT [3] = biological target: T1, RnCOMT; assay: HPLC, O-methylation to C6/C7-OMe-7b; details: SAM generated in situ (EcMAT, EcMTAN), Mg2+, pH 7.5, 37 °C, 24 h; not enantioselective
MxSafC [4] = biological target: T2, MxSafC; assay: HPLC, O-methylation to C6-OMe-7b; format: biochemical; details: SAM generated in situ (EcMAT, EcMTAN), Mg2+, pH 7.5, 37 °C, 24 h; selective for (S)

Compound	HPLC, O-methylation to C6-OMe product (RnCOMT [1])	HPLC, O-methylation to C6-OMe-7a (MxSafC [2])	HPLC, O-methylation to C6/C7-OMe-7b (RnCOMT [3])	HPLC, O-methylation to C6-OMe-7b (MxSafC [4])
Oc1cc2c(cc1O)[C@H](C1CCCCC1)NCC2 [5a, (S)-5a]	using 5a as the substrate, gave remarkable regioselectivity	MxSafC was found to be selective towards both (S)-5a and (S)-5b		
Oc1cc2c(cc1O)[C@H](c1ccccc1)NCC2 [5b, (S)-5b]			C6:C7-OMe-7b was observed by ^1H-NMR when 5b was used as the substrate	MxSafC was found to be selective towards both (S)-5a and (S)-5b
